ChEMBL document CHEMBL4706534, “1,2,3-Triazole-containing hybrids with potential antibacterial activity against methicillin-resistant Staphylococcus aureus (MRSA)” (Eur J Med Chem, 2020)
In brackets after ≈: the same amount, converted by molar mass.

Key:
Staphylococcus aureus [1] = test: Antibacterial activity against Methicillin-resistant Staphylococcus aureus ATCC 33591; format: functional, organism-based
Staphylococcus aureus [2] = test: Antibiofilm activity against methicillin-resistant Staphylococcus aureus ATCC BAA-44 incubated for 24 hrs by crystal violet-staining based assay; format: functional, organism-based; details: ATCC BAA-44, 24 h
Staphylococcus aureus [3] = test: Potentiation of oxacillin-induced antibacterial activity against methicillin-resistant Staphylococcus aureus ATCC BAA-44 assessed as reduction in oxacillin MIC preincubated for 30 mins followed by oxacillin addition and measured after 16 hrs by broth microdilution method; format: functional; details: time 16.5 hrs
Staphylococcus aureus [4] = test: Antibacterial activity against methicillin-sensitive Staphylococcus aureus ATCC 29213 by broth microdilution method; format: functional
Staphylococcus aureus [5] = test: Antibacterial activity against methicillin-resistant Staphylococcus aureus ATCC 33591 by broth microdilution method; format: functional

Work on `CN[C@H](CC(C)C)C(=O)N[C@@H]1Cc2ccc(c(Cl)c2)Oc2cc3cc(c2O[C@@H]2O[C@H](CO)[C@@H](O)[C@H](O)[C@H]2O[C@H]2C[C@](C)(N)[C@H](O)[C@H](C)O2)Oc2ccc(cc2Cl)[C@@H](O)[C@@H]2NC(=O)[C@H](NC(=O)[C@@H]3NC(=O)[C@H](CC(=O)O)NC1=O)c1ccc(O)c(c1)-c1c(O)cc(O)cc1[C@H](C(=O)NCCCCCc1cn(CCNC(=O)[C@@H]3NC(=O)[C@H]4NC(=O)[C@H](NC(=O)[C@@H]5NC(=O)[C@H](CC(=O)O)NC(=O)[C@H](NC(=O)[C@@H](CC(C)C)NC)Cc6ccc(c(Cl)c6)Oc6cc5cc(c6O[C@@H]5O[C@H](CO)[C@@H](O)[C@H](O)[C@H]5O[C@H]5C[C@](C)(N)[C@H](O)[C@H](C)O5)Oc5ccc(cc5Cl)[C@H]4O)c4ccc(O)c(c4)-c4c(O)cc(O)cc43)nn1)NC2=O` yielded an MIC (Staphylococcus aureus [1]) of 1.3 µg/mL (≈ 0.429 µM).
Work on `CN[C@H](CC(C)C)C(=O)N[C@@H]1Cc2ccc(c(Cl)c2)Oc2cc3cc(c2O[C@@H]2O[C@H](CO)[C@@H](O)[C@H](O)[C@H]2O[C@H]2C[C@](C)(N)[C@H](O)[C@H](C)O2)Oc2ccc(cc2Cl)[C@@H](O)[C@@H]2NC(=O)[C@H](NC(=O)[C@@H]3NC(=O)[C@H](CC(=O)O)NC1=O)c1ccc(O)c(c1)-c1c(O)cc(O)cc1[C@H](C(=O)NCCCCCc1cn(CCCCNC(=O)[C@@H]3NC(=O)[C@H]4NC(=O)[C@H](NC(=O)[C@@H]5NC(=O)[C@H](CC(=O)O)NC(=O)[C@H](NC(=O)[C@@H](CC(C)C)NC)Cc6ccc(c(Cl)c6)Oc6cc5cc(c6O[C@@H]5O[C@H](CO)[C@@H](O)[C@H](O)[C@H]5O[C@H]5C[C@](C)(N)[C@H](O)[C@H](C)O5)Oc5ccc(cc5Cl)[C@H]4O)c4ccc(O)c(c4)-c4c(O)cc(O)cc43)nn1)NC2=O` yielded an MIC (Staphylococcus aureus [1]) of 1.3 µg/mL (≈ 0.425 µM).
`COc1ccc(-c2[nH]c(N)nc2CCCCCc2cn(C/C(C)=C\c3ccccc3)nn2)cc1` was tested, and the IC50 (Staphylococcus aureus [2]) was 1340 nM and the “fold change (FC)” value (Staphylococcus aureus [3]) was 2.
`CC(=O)N[C@H]1[C@H](O[C@@H]2c3ccc(c(Cl)c3)Oc3cc4cc(c3O)Oc3ccc(cc3Cl)C[C@H]3NC(=O)[C@H](n5cc(CO[C@H]6[C@@H](OCc7ccccc7)[C@@H](COCc7ccccc7)O[C@@H](O[C@H]7[C@H](OCc8ccccc8)[C@@H](OCc8ccccc8)[C@H](Sc8ccccc8)O[C@@H]7COCc7ccccc7)[C@@H]6OCc6ccccc6)nn5)c5ccc(O)c(c5)Oc5cc(O)cc(c5)[C@H](NC3=O)C(=O)N[C@H]4C(=O)N[C@H]3C(=O)N[C@@H]2C(=O)N[C@@H](C(=O)O)c2cc(O)cc(O)c2-c2cc3ccc2O)O[C@H](CO)[C@@H](O)[C@@H]1O` gave an MIC (Staphylococcus aureus [4]) of 32 µg/mL (≈ 13.1 µM) and an MIC (Staphylococcus aureus [5]) of 32 µg/mL (≈ 13.1 µM).
For `C/C(=C/c1ccccc1)Cn1cc(CCCCCc2nc(N)[nH]c2-c2cc(F)cc(F)c2)nn1`, the IC50 (Staphylococcus aureus [2]) was 1340 nM and the “fold change (FC)” value (Staphylococcus aureus [3]) was 2.
With `CCCc1ccc(/C=C(/C)Cn2cc(CCCCCc3nc(N)[nH]c3-c3ccccc3)nn2)cc1` the IC50 (Staphylococcus aureus [2]) was 1420 nM and the “fold change (FC)” value (Staphylococcus aureus [3]) was 2.
In the case of `CN[C@H](CC(C)C)C(=O)N[C@@H]1Cc2ccc(c(Cl)c2)Oc2cc3cc(c2O[C@@H]2O[C@H](CO)[C@@H](O)[C@H](O)[C@H]2O[C@H]2C[C@](C)(N)[C@H](O)[C@H](C)O2)Oc2ccc(cc2Cl)[C@@H](O)[C@@H]2NC(=O)[C@H](NC(=O)[C@@H]3NC(=O)[C@H](CC(=O)O)NC1=O)c1ccc(O)c(c1)-c1c(O)cc(O)cc1[C@H](C(=O)NCCCn1cc(CNC(=O)[C@@H]3NC(=O)[C@H]4NC(=O)[C@H](NC(=O)[C@@H]5NC(=O)[C@H](CC(=O)O)NC(=O)[C@H](NC(=O)[C@@H](CC(C)C)NC)Cc6ccc(c(Cl)c6)Oc6cc5cc(c6O[C@@H]5O[C@H](CO)[C@@H](O)[C@H](O)[C@H]5O[C@H]5C[C@](C)(N)[C@H](O)[C@H](C)O5)Oc5ccc(cc5Cl)[C@H]4O)c4ccc(O)c(c4)-c4c(O)cc(O)cc43)nn1)NC2=O`, the MIC (Staphylococcus aureus [1]) is reported as 1.3 µg/mL (≈ 0.435 µM).
`CCCCCCCCOCc1cn([C@H]2C(=O)N[C@@H]3Cc4ccc(c(Cl)c4)Oc4cc5cc(c4O)Oc4ccc(cc4Cl)[C@@H](O[C@@H]4O[C@H](CO)[C@@H](O)[C@H](O)[C@H]4NC(C)=O)[C@@H]4NC(=O)[C@H](NC(=O)[C@@H]5NC(=O)[C@@H](NC3=O)c3cc(O)cc(c3)Oc3cc2ccc3O)c2ccc(O)c(c2)-c2c(O)cc(O)cc2[C@H](C(=O)O)NC4=O)nn1` was tested, and the MIC (Staphylococcus aureus [4]) was 0.5 µg/mL (≈ 0.313 µM) and the MIC (Staphylococcus aureus [5]) was 0.5 µg/mL (≈ 0.313 µM).
`CC(=O)N[C@H]1[C@H](O[C@@H]2c3ccc(c(Cl)c3)Oc3cc4cc(c3O)Oc3ccc(cc3Cl)C[C@H]3NC(=O)[C@H](n5cc(COc6ccccc6)nn5)c5ccc(O)c(c5)Oc5cc(O)cc(c5)[C@H](NC3=O)C(=O)N[C@H]4C(=O)N[C@H]3C(=O)N[C@@H]2C(=O)N[C@@H](C(=O)O)c2cc(O)cc(O)c2-c2cc3ccc2O)O[C@H](CO)[C@@H](O)[C@@H]1O` showed an MIC (Staphylococcus aureus [4]) of 0.5 µg/mL (≈ 0.32 µM) and an MIC (Staphylococcus aureus [5]) of 0.5 µg/mL (≈ 0.32 µM).
In the case of `C/C(=C/c1ccccc1)Cn1cc(CCCCCc2nc(N)[nH]c2-c2ccc(-c3ccccc3)cc2)nn1`, the IC50 (Staphylococcus aureus [2]) is reported as 1340 nM and the “fold change (FC)” value (Staphylococcus aureus [3]) is reported as 2.
In the case of `CCCCCCCCc1cn([C@H]2C(=O)N[C@@H]3Cc4ccc(c(Cl)c4)Oc4cc5cc(c4O)Oc4ccc(cc4Cl)[C@@H](O[C@@H]4O[C@H](CO)[C@@H](O)[C@H](O)[C@H]4NC(C)=O)[C@@H]4NC(=O)[C@H](NC(=O)[C@@H]5NC(=O)[C@@H](NC3=O)c3cc(O)cc(c3)Oc3cc2ccc3O)c2ccc(O)c(c2)-c2c(O)cc(O)cc2[C@H](C(=O)O)NC4=O)nn1`, the MIC (Staphylococcus aureus [4]) is reported as 0.16 µg/mL (≈ 0.102 µM) and the MIC (Staphylococcus aureus [5]) is reported as 0.16 µg/mL (≈ 0.102 µM).
`C/C(=C/c1ccccc1)Cn1cc(CCCCCc2nc(N)[nH]c2-c2ccc(C(C)C)cc2)nn1` was tested, and the IC50 (Staphylococcus aureus [2]) was 1340 nM and the “fold change (FC)” value (Staphylococcus aureus [3]) was 2.
Work on `CC(=O)N[C@H]1[C@H](O[C@@H]2c3ccc(c(Cl)c3)Oc3cc4cc(c3O)Oc3ccc(cc3Cl)C[C@H]3NC(=O)[C@H](n5cc(COc6cccc7ccccc67)nn5)c5ccc(O)c(c5)Oc5cc(O)cc(c5)[C@H](NC3=O)C(=O)N[C@H]4C(=O)N[C@H]3C(=O)N[C@@H]2C(=O)N[C@@H](C(=O)O)c2cc(O)cc(O)c2-c2cc3ccc2O)O[C@H](CO)[C@@H](O)[C@@H]1O` yielded an MIC (Staphylococcus aureus [4]) of 0.5 µg/mL (≈ 0.31 µM) and an MIC (Staphylococcus aureus [5]) of 0.5 µg/mL (≈ 0.31 µM).
Work on `CN[C@H](CC(C)C)C(=O)N[C@@H]1Cc2ccc(c(Cl)c2)Oc2cc3cc(c2O[C@@H]2O[C@H](CO)[C@@H](O)[C@H](O)[C@H]2O[C@H]2C[C@](C)(N)[C@H](O)[C@H](C)O2)Oc2ccc(cc2Cl)[C@@H](O)[C@@H]2NC(=O)[C@H](NC(=O)[C@@H]3NC(=O)[C@H](CC(=O)O)NC1=O)c1ccc(O)c(c1)-c1c(O)cc(O)cc1[C@H](C(=O)NCCCCCCn1cc(CCCNC(=O)[C@@H]3NC(=O)[C@H]4NC(=O)[C@H](NC(=O)[C@@H]5NC(=O)[C@H](CC(=O)O)NC(=O)[C@H](NC(=O)[C@@H](CC(C)C)NC)Cc6ccc(c(Cl)c6)Oc6cc5cc(c6O[C@@H]5O[C@H](CO)[C@@H](O)[C@H](O)[C@H]5O[C@H]5C[C@](C)(N)[C@H](O)[C@H](C)O5)Oc5ccc(cc5Cl)[C@H]4O)c4ccc(O)c(c4)-c4c(O)cc(O)cc43)nn1)NC2=O` yielded an MIC (Staphylococcus aureus [1]) of 1.3 µg/mL (≈ 0.425 µM).
For `C/C(=C/c1ccccc1)Cn1cc(CCCCCc2nc(N)[nH]c2-c2ccc(F)cc2)nn1`, the IC50 (Staphylococcus aureus [2]) was 1340 nM and the “fold change (FC)” value (Staphylococcus aureus [3]) was 2.
Compound `CN[C@H](CC(C)C)C(=O)N[C@@H]1Cc2ccc(c(Cl)c2)Oc2cc3cc(c2O[C@@H]2O[C@H](CO)[C@@H](O)[C@H](O)[C@H]2O[C@H]2C[C@](C)(N)[C@H](O)[C@H](C)O2)Oc2ccc(cc2Cl)[C@@H](O)[C@@H]2NC(=O)[C@H](NC(=O)[C@@H]3NC(=O)[C@H](CC(=O)O)NC1=O)c1ccc(O)c(c1)-c1c(O)cc(O)cc1[C@H](C(=O)NCCc1cn(CCNC(=O)[C@@H]3NC(=O)[C@H]4NC(=O)[C@H](NC(=O)[C@@H]5NC(=O)[C@H](CC(=O)O)NC(=O)[C@H](NC(=O)[C@@H](CC(C)C)NC)Cc6ccc(c(Cl)c6)Oc6cc5cc(c6O[C@@H]5O[C@H](CO)[C@@H](O)[C@H](O)[C@H]5O[C@H]5C[C@](C)(N)[C@H](O)[C@H](C)O5)Oc5ccc(cc5Cl)[C@H]4O)c4ccc(O)c(c4)-c4c(O)cc(O)cc43)nn1)NC2=O` has an MIC (Staphylococcus aureus [1]) of 1.3 µg/mL (≈ 0.435 µM).
For `C/C(=C/CC1CCCCC1)Cn1cc(CCCCCc2nc(N)[nH]c2-c2ccccc2)nn1`, the IC50 (Staphylococcus aureus [2]) was 1420 nM and the “fold change (FC)” value (Staphylococcus aureus [3]) was 2.
`CN[C@H](CC(C)C)C(=O)N[C@@H]1Cc2ccc(c(Cl)c2)Oc2cc3cc(c2O[C@@H]2O[C@H](CO)[C@@H](O)[C@H](O)[C@H]2O[C@H]2C[C@](C)(N)[C@H](O)[C@H](C)O2)Oc2ccc(cc2Cl)[C@@H](O)[C@@H]2NC(=O)[C@H](NC(=O)[C@@H]3NC(=O)[C@H](CC(=O)O)NC1=O)c1ccc(O)c(c1)-c1c(O)cc(O)cc1[C@H](C(=O)NCCn1cc(CNC(=O)[C@@H]3NC(=O)[C@H]4NC(=O)[C@H](NC(=O)[C@@H]5NC(=O)[C@H](CC(=O)O)NC(=O)[C@H](NC(=O)[C@@H](CC(C)C)NC)Cc6ccc(c(Cl)c6)Oc6cc5cc(c6O[C@@H]5O[C@H](CO)[C@@H](O)[C@H](O)[C@H]5O[C@H]5C[C@](C)(N)[C@H](O)[C@H](C)O5)Oc5ccc(cc5Cl)[C@H]4O)c4ccc(O)c(c4)-c4c(O)cc(O)cc43)nn1)NC2=O` was tested, and the MIC (Staphylococcus aureus [1]) was 1.3 µg/mL (≈ 0.437 µM).
In the case of `CCCCCCCCCCCC/C=C(/C)Cn1cc(CCCCCc2nc(N)[nH]c2-c2ccccc2)nn1`, the IC50 (Staphylococcus aureus [2]) is reported as 1420 nM and the “fold change (FC)” value (Staphylococcus aureus [3]) is reported as 2.
Work on `CN[C@H](CC(C)C)C(=O)N[C@@H]1Cc2ccc(c(Cl)c2)Oc2cc3cc(c2O[C@@H]2O[C@H](CO)[C@@H](O)[C@H](O)[C@H]2O[C@H]2C[C@](C)(N)[C@H](O)[C@H](C)O2)Oc2ccc(cc2Cl)[C@@H](O)[C@@H]2NC(=O)[C@H](NC(=O)[C@@H]3NC(=O)[C@H](CC(=O)O)NC1=O)c1ccc(O)c(c1)-c1c(O)cc(O)cc1[C@H](C(=O)NCCCCCc1cn(CCCCCNC(=O)[C@@H]3NC(=O)[C@H]4NC(=O)[C@H](NC(=O)[C@@H]5NC(=O)[C@H](CC(=O)O)NC(=O)[C@H](NC(=O)[C@@H](CC(C)C)NC)Cc6ccc(c(Cl)c6)Oc6cc5cc(c6O[C@@H]5O[C@H](CO)[C@@H](O)[C@H](O)[C@H]5O[C@H]5C[C@](C)(N)[C@H](O)[C@H](C)O5)Oc5ccc(cc5Cl)[C@H]4O)c4ccc(O)c(c4)-c4c(O)cc(O)cc43)nn1)NC2=O` yielded an MIC (Staphylococcus aureus [1]) of 1.3 µg/mL (≈ 0.423 µM).
